According to patent US11479528B2, “Heat shock protein 90 inhibitors” (TAIPEI MEDICAL UNIVERSITY, priority 2017, dated 2022):
Read-outs that look alike come from different tables or passages of the source.

What was measured:
lung A549 = test: Sulforhodamine B (SRB) assay, lung A549; assay type: cell-based, human; conditions: Homo sapiens
Experimental: Human cancer cells were purchased from the American Type Culture Collection (Manassas, Va., USA).
Cells were seeded in 96-well plates in medium with 5% fetal bovine serum. […] Unbound sulforhodamine B was washed out by 1% acetic acid and sulforhodamine B-bound cells were solubilized with 10 mmol/L Trizma base. […] Using the following absorbance measurements, such as time zero (T0), control growth (C), and cell growth in the presence of the drug (Tx), the percentage growth was calculated at each of the compound concentrations levels. Percentage growth inhibition was calculated as […].

colorectal HCT116 = test: Sulforhodamine B (SRB) assay, colorectal HCT116; assay type: cell-based; conditions: Homo sapiens
Experimental: (§1) Human cancer cells were purchased from the American Type Culture Collection (Manassas, Va., USA). These cell lines were cultured in RPMI 1640 medium or DMEM supplemented with 10% FBS (v/v) and pencillin (100 U/mL)/streptomycin (100 ug/mL)/amphotericin B (0.25 ug/mL). Cultures were maintained at 37° C. in a humidified atmosphere of 5% CO2/95% air.
(§2) Cells were seeded in 96-well plates in medium with 5% fetal bovine serum. After 24 h, cells were fixed with 10% trichloroacetic acid to represent cell population at the time of drug addition (T0). After additional incubation of DMSO or drugs for 48 h, cells were fixed with 10% trichloroacetic acid and sulforhodamine B at 0.4% (w/v) in 1% acetic acid was added to stain cells. Unbound sulforhodamine B was washed out by 1% acetic acid and sulforhodamine B-bound cells were solubilized with 10 mmol/L Trizma base. The absorbance was read at a wavelength of 515 nm. Using the following absorbance measurements, such as time zero (T0), control growth (C), and cell growth in the presence of the drug (Tx), the percentage growth was calculated at each of the compound concentrations levels. Percentage growth inhibition was calculated as […].

liver Hep3B = test: Sulforhodamine B (SRB) assay, liver Hep3B; assay type: cell-based; conditions: Homo sapiens, 48 h, read-out: GI50 Liver Hep3B
Experimental: as §1, §2

breast MDA-MB-231 = test: Sulforhodamine B (SRB) assay, breast MDA-MB-231; assay type: cell-based; conditions: Homo sapiens, read-out: GI50 Breast MDA-MB-231
Experimental: as §1, §2

HUVEC cells = test: Sulforhodamine B (SRB) assay, HUVEC; conditions: Homo sapiens, HUVEC, 48 h, read-out: GI50 HUVEC
Experimental: as §1, §2

HSP90 α protein = HSP90 α protein (Homo sapiens, UniProt P07900); test: HSP90 ATP-binding / fluorescence polarization competition assay (enzyme inhibition)
Experimental: To assess the inhibition of HSP90 activity within a cellular context, cells were treated with certain substituted aromatic compounds of formula (I) and the inhibition of HSP90 ATP-binding activity in cells was determined by using an ATP pull-down assay. Cells were treated with the compounds for 24 hours and then lysed in TNESV buffer (50 mM Tris, 2 mM EDTA, […], 1 mM activated sodium orthovanadate, 25 mM NaF, 1% Triton X-100 [pH 7.5]) for 30 min at 4° C. Lysates were spun for 30 min at 12000 rpm at 4° C. Protein (200 ug) was incubated with conditioned γ-ATP-polyacrylamide resin in incubation buffer (10 mM Tris-HCl, 50 mM KCl, 5 mM MgCl2, 20 mM Na2MoO4, 0.01% Nonidet P-40) overnight at 4° C., rotating. The resin was then washed four times with incubation buffer. Bound proteins were isolated by boiling with SDS buffer. For the competition studies, fluorescence polarization assays were performed under the following conditions: each 96-well plate contained 5 nM fluorescent GM (geldanamycin), 30 nM HSP90 α protein, and tested inhibitor in a final volume of 100 uL. For each assay, background wells (buffer only), tracer controls (free, fluorescent GMonly), and bound GM controls (fluorescent GM in the presence of HSP90) were included on each assay plate. The fraction of tracer bound to HSP90 was correlated to the mP value and plotted against log 10 values of competitor concentrations. The inhibitor concentration at which 50% of bound GM was displaced was obtained by fitting the data.

[1] = test system: human colon HCT116 xenograft; test: Human colon HCT116 xenograft model; conditions: 100 mg/kg, po; for TGI, tumor growth inhibition: n = 7-8
Experimental: An in vivo study was conducted to evaluate the efficacy of compounds of formula (I) in suppressing tumor growth in a human colon HCT116 xenograft model.

[2] = Pharmacokinetic profiles in rat; conditions: in vivo
Experimental: A pharmacokinetic study was conducted to evaluate the pharmacokinetic properties of compounds of formula (I).

[3] = Maximum tolerated dose and therapeutic index in vivo
prostate PC3 = test: Sulforhodamine B (SRB) assay, prostate PC3; assay type: cell-based; conditions: Homo sapiens, Table 1, 48 h
Experimental: as §1, §2

[4] = A549, Table 1, SRB, 48 h, read-out: GI50 Lung A549
[5] = HCT-116, Table 1, SRB, 48 h, read-out: GI50 Colorectal HCT116

## CCN(C(=O)c1cc(C(C)C)c(O)cc1O)c1ccncc1 [Compound 19b, N-ethyl-2,4-dihydroxy-5-isopropyl-N-(pyridin-4-yl)benzamide]
Lung A549; [4]
  GI50: 0.12 ± 0.01 µM
Lung A549; A549, Table 2, SRB, read-out: A549 GI50
  GI50: 0.12 ± 0.01 µM
Colorectal HCT116; [5]
  GI50: 0.64 ± 0.41 µM
Colorectal HCT116; HCT-116, Table 2, SRB, read-out: HCT116 GI50
  GI50: 0.64 ± 0.41 µM
Liver Hep3B; Table 1, SRB
  GI50: 0.1 ± 0.01 µM
Breast MDA-MB-231; MDA-MB-231, Table 1, SRB, 48 h
  GI50: 0.08 ± 0.01 µM
HUVEC cells
  GI50: < 0.1 µM
HSP90 α protein; 5 nM fluorescent GM, 30 nM HSP90 α, read-out: HSP90 IC50 enzyme inhibition
  IC50: 0.109 ± 0.00535 µM
[1]; qd
  TGI, tumor growth inhibition: 29.1%
[2]; iv, 2 mg/kg
  Vd: 12 ± 8.9 L/kg
[2]; iv, 2 mg/kg, AUC(0-inf), IV (2 mg/kg)
  AUC(0-inf): 442 ± 49 ng·h/mL
[2]; iv, 2 mg/kg, CL, IV (2 mg/kg)
  clearance: 75 ± 4.8 mL/min/kg
[2]; iv, 2 mg/kg, T1/2, rat, IV (2 mg/kg)
  half-life: 8.1 ± 4.7 h
[2]; po, 20 mg/kg
  Cmax: 51 ± 9 ng/mL
  Tmax: 0.3 ± 0.1 h
  bioavailability: 11%
[2]; po, 20 mg/kg, AUC(0-inf), PO (20 mg/kg)
  AUC(0-inf): 485 ± 103 ng·h/mL
[2]; po, 20 mg/kg, T1/2, rat, PO (20 mg/kg)
  half-life: 11 ± 7.6 h

## CCN(C(=O)c1cc(C(C)C)c(O)cc1O)c1ccc2[nH]ccc2c1 [Compound 20c, N-ethyl-2,4-dihydroxy-N-(1H-indol-5-yl)-5-isopropylbenzamide]
Lung A549; A549, 48 h, read-out: GI50 Lung A549
  GI50: 0.11 ± 0.01 µM
Lung A549; A549, read-out: A549 GI50
  GI50: 0.11 ± 0.01 µM
Colorectal HCT116; HCT-116, 48 h, read-out: GI50 Colorectal HCT116
  GI50: 0.37 ± 0.05 µM
Colorectal HCT116; HCT-116, read-out: HCT116 GI50
  GI50: 0.37 ± 0.05 µM
Liver Hep3B
  GI50: 0.11 ± 0.02 µM
Breast MDA-MB-231; MDA-MB-231, 48 h
  GI50: 0.08 ± 0.01 µM
HUVEC cells
  GI50: < 0.1 µM
HSP90 α protein
  IC50: 0.117 ± 0.00962 µM
[1]; qd × 7/5 on 2 off, Day 7
  Loss of Body: −15.4%
[1]; qd × 7/5 on 2 off
  TGI, tumor growth inhibition: 33.1%
[2]; iv, 2 mg/kg
  AUC(0-inf): 234 ± 114 ng·h/mL
  Vd: 9 ± 2.8 L/kg
  clearance: 170 ± 64 mL/min/kg
  half-life: 1.5 ± 0.5 h
[2]; po, 20 mg/kg
  AUC(0-inf): 499 ± 38 ng·h/mL
  Cmax: 67 ± 23 ng/mL
  Tmax: 2.7 ± 1.2 h
  bioavailability: 22%
  half-life: 5.9 ± 1.6 h
[3]; MTD/MED
  TI, Therapeutic Index, ratio of MTD to minimum efficacious dose (MED): 1
[3]; in vivo, po
  MTD: 100 mg/kg

## CC(C)c1cc(C(=O)Nc2cnc3c(ccn3C)c2)c(O)cc1O [Compound 24b, 2,4-dihydroxy-5-isopropyl-N-(1-methyl-1H-pyrrolo[2,3-b]pyridin-5-yl)benzamide]
Lung A549; [4]
  GI50: > 10 µM
Colorectal HCT116; [5]
  GI50: > 10 µM
Prostate PC3
  GI50: > 10 µM

## CC(C)c1cc(C(=O)Nc2cnc3[nH]ncc3c2)c(O)cc1O [Compound 26a, 2,4-dihydroxy-5-isopropyl-N-(1H-pyrazolo[3,4-b]pyridin-5-yl)benzamide]
Lung A549; [4]
  GI50: > 10 µM
Colorectal HCT116; [5]
  GI50: > 10 µM
Prostate PC3
  GI50: > 10 µM

## CC(C)c1cc(C(=O)Nc2ncnc3c2ccn3C)c(O)cc1O [Compound 27a, 2,4-dihydroxy-5-isopropyl-N-(7-methyl-7H-pyrrolo[2,3-d]pyrimidin-4-yl)benzamide]
Colorectal HCT116; [5]
  GI50: > 10 µM
Prostate PC3
  GI50: > 10 µM

## CC(C)c1cc(C(=O)N(C)c2ncnc3c2ccn3C)c(O)cc1O [Compound 27b, 2,4-dihydroxy-5-isopropyl-N-methyl-N-(7-methyl-7H-pyrrolo[2,3-d]pyrimidin-4-yl)benzamide]
Colorectal HCT116; [5]
  GI50: 8.96 ± 0.18 µM
Prostate PC3
  GI50: 8.49 ± 0.49 µM

## CCN(C(=O)c1cc(C(C)C)c(O)cc1O)c1ncnc2c1ccn2C [Compound 27c, N-ethyl-2,4-dihydroxy-5-isopropyl-N-(7-methyl-7H-pyrrolo[2,3-d]pyrimidin-4-yl)benzamide]
Colorectal HCT116; [5]
  GI50: 3.49 ± 0.15 µM
Prostate PC3
  GI50: 6.68 ± 0.55 µM

## CCCN(C(=O)c1cc(C(C)C)c(O)cc1O)c1ncnc2c1ccn2C [Compound 27d, 2,4-dihydroxy-5-isopropyl-N-(7-methyl-7H-pyrrolo[2,3-d]pyrimidin-4-yl)-N-propylbenzamide]
Colorectal HCT116; [5]
  GI50: > 10 µM
Prostate PC3
  GI50: > 10 µM

## CC(C)c1cc(C(=O)N(c2ncnc3c2ccn3C)C(C)C)c(O)cc1O [Compound 27e, 2,4-dihydroxy-N, 5-diisopropyl-N-(7-methyl-7H-pyrrolo[2,3-d]pyrimidin-4-yl)benzamide]
Colorectal HCT116; [5]
  GI50: 8.77 ± 0.1 µM
Prostate PC3
  GI50: > 10 µM

## CCCN(C(=O)c1cc(C(C)C)c(O)cc1O)c1cnc2ccccc2c1 [Compound 28d, 2,4-dihydroxy-5-isopropyl-N-propyl-N-(quinolin-3-yl)benzamide]
Lung A549; [4]
  GI50: 1.16 ± 0.1 µM
Colorectal HCT116; [5]
  GI50: 1.21 ± 0.13 µM
Prostate PC3
  GI50: 2.33 ± 0.04 µM

## CC(C)c1cc(C(=O)N(C)c2cccc3ncccc23)c(O)cc1O [Compound 29b, 2,4-dihydroxy-5-isopropyl-N-methyl-N-(quinolin-5-yl)benzamide]
Lung A549; [4]
  GI50: > 10 µM
Colorectal HCT116; [5]
  GI50: > 10 µM
Prostate PC3
  GI50: > 10 µM

## CC(C)c1cc(C(=O)N(C)c2cccc3cccnc23)c(O)cc1O [Compound 31b, 2,4-dihydroxy-5-isopropyl-N-methyl-N-(quinolin-8-yl)benzamide]
Lung A549; [4]
  GI50: 8.7 ± 0.25 µM
Colorectal HCT116; [5]
  GI50: > 10 µM
Prostate PC3
  GI50: 8.93 ± 0.25 µM

## CCN(C(=O)c1cc(C(C)C)c(O)cc1O)c1cc(C)nc2ccccc12 [Compound 32c, N-ethyl-2,4-dihydroxy-5-isopropyl-N-(2-methylquinolin-4-yl)benzamide]
Lung A549; [4]
  GI50: 5.67 ± 0.06 µM
Colorectal HCT116; [5]
  GI50: 5.99 ± 0.3 µM
Prostate PC3
  GI50: 6.3 ± 0.3 µM

## CC(C)c1cc(C(=O)N(C)c2ccc3c(c2)CCCN3)c(O)cc1O [Compound 33a, 2,4-dihydroxy-5-isopropyl-N-methyl-N-(1,2,3,4-tetrahydroquinolin-6-yl)benzamide]
Colorectal HCT116; [5]
  GI50: 5.79 ± 0.11 µM
Prostate PC3
  GI50: 7.66 ± 0.42 µM

## CCN(C(=O)c1cc(C(C)C)c(O)cc1O)c1ccc2c(c1)CCCN2 [Compound 33b, N-ethyl-2,4-dihydroxy-5-isopropyl-N-(1,2,3,4-tetrahydroquinolin-6-yl)benzamide]
Colorectal HCT116; [5]
  GI50: 5.38 ± 0.1 µM
Prostate PC3
  GI50: 6.01 ± 0.41 µM

## CC(C)c1cc(C(=O)N(C)c2ccc3c(c2)CCCN3C)c(O)cc1O [Compound 33c, 2,4-dihydroxy-5-isopropyl-N-methyl-N-(1-methyl-1,2,3,4-tetrahydroquinolin-6-yl)benzamide]
Colorectal HCT116; [5]
  GI50: 6.51 ± 0.09 µM
Prostate PC3
  GI50: 8.5 ± 0.45 µM

## CCN(C(=O)c1cc(C(C)C)c(O)cc1O)c1ccc2c(c1)CCCN2C [Compound 33d, N-ethyl-2,4-dihydroxy-5-isopropyl-N-(1-methyl-1,2,3,4-tetrahydroquinolin-6-yl)benzamide]
Colorectal HCT116; [5]
  GI50: 5.71 ± 0.12 µM
Prostate PC3
  GI50: 8.18 ± 0.46 µM
